Reference: patent US6375993B1, “Pomegranate extracts and methods of using thereof” (priority 1999, dated 2002)

Assay: Copper-ions chelating capacity (LDL oxidation at increasing CuSO4)
Format: biochemical
Details: 25 μmol/L of EDTA; TBARS, two hours, 37° C.
Protocol: In order to examine whether pomegranate juice inhibits LDL oxidation by chelation of metal ions, LDL (100 mg of protein/L) was incubated with 0.2 mL of pomegranate juice/L (0.56 μmol of polyphenols/L) in the presence of increasing concentrations of copper ions. Incubation of LDL with 25 μmol/L of Na2 EDTA served as a positive control, as EDTA is a potent chelator of metal ions. […] At higher copper ion concentrations, EDTA could no longer overcome the pro-oxidative effect of CuSO4.

O=C([O-])CN(CCN(CC(=O)[O-])CC(=O)O)CC(=O)O.[Na+].[Na+] [EDTA, Na2 EDTA]
CuSO4 concentration up to which copper ion-induced LDL oxidation was inhibited: up to 40 μmol/L
